The text below walks through data of ChEMBL document CHEMBL1143951, “Synthesis and cytotoxicity evaluation of 22,23-oxygenated stigmastane derivatives” (Bioorg Med Chem, 2008).

In assay [1] the test system is MCF7. Kind of assay: Cytotoxicity against human MCF7 cells after 48 hrs by MTT assay. Format: functional, cell-based.
Assay [2] concerns HepG2. Kind of assay: Cytotoxicity against human HepG2 cells after 48 hrs by MTT assay. The format is functional, cell-based. Background: Tetrazolium assays rely on reduction of a dye to a coloured formazan, in cell work by metabolically active cells.

For `CCC(C(C)C)[C@@H](O)[C@H](O)[C@@H](C)[C@H]1CC[C@H]2[C@@H]3C[C@@H]4O[C@@]45C[C@@H](O)CC[C@]5(C)[C@H]3CC[C@]12C` (stereo partly specified), the Activity result in assay [1] was “Toxic”. Consider `CCC(C(C)C)[C@H]1O[C@@H]1[C@@H](C)[C@H]1CC[C@H]2[C@@H]3[C@H](O)C=C4C[C@@H](O)CC[C@]4(C)[C@H]3CC[C@]12C` (stereo partly specified), for which the Activity entry in assay [1] and in assay [2] was “Toxic” each time.

Turning to `CCC(C(C)C)[C@@H](O)[C@H](O)[C@@H](C)[C@H]1CC[C@H]2[C@@H]3C[C@@H](O)[C@@]4(O)C[C@@H](O)CC[C@]4(C)[C@H]3CC[C@]12C` (stereo partly specified), the Activity result in assay [1] and in assay [2] was “Toxic” throughout. On to `CC[C@@H](C(C)C)[C@@H](O)[C@H](O)[C@@H](C)[C@H]1CC[C@H]2[C@@H]3CC(=O)C4=CC(=O)CC[C@]4(C)[C@H]3CC[C@]12C`, for which, in assay [1], the Activity entry is “Toxic”. On the same count and under the same terms, the result for `CC[C@@H](C(C)C)[C@@H](O)[C@H](O)[C@@H](C)[C@H]1CC[C@H]2[C@@H]3CCC4=CC(=O)CC[C@]4(C)[C@H]3CC[C@]12C` reads “Toxic”. In the case of `CCC(C(C)C)[C@@H](O)[C@H](O)[C@@H](C)[C@H]1CC[C@H]2[C@@H]3C(=O)C=C4C[C@@H](O)CC[C@]4(C)[C@H]3CC[C@]12C` (stereo partly specified), the Activity entry in assay [1] and in assay [2] was “Toxic” in each case. Take `CCC(C(C)C)[C@@H](O)[C@H](O)[C@@H](C)[C@H]1CC[C@H]2[C@@H]3CC=C4C[C@@H](O)CC[C@]4(C)[C@H]3CC[C@]12C` (stereo partly specified): the Activity result in assay [1] and in assay [2] was “Toxic” in each case.
